# Assay results reported in patent US20080249178A1, “MAGNESIUM COMPOSITIONS AND USES THEREOF FOR INCREASING LIFESPAN” (priority 2007, published 2008).
# Legend:
# Sprague Dawley (SD) rats = conditions: aging rats, 6 mg/kg MgCl2
# Procedure: Twenty 2-month old, male Sprague Dawley (SD) rats were housed in a temperature-controlled room (22° C. to 25° C.) with a dark period from 08:00 pm to 08:00 am daily. […] Over 7 days before the training and trial period began, each rat was handled and habituated to the maze and to Kellogg's Froot Loop cereal.
# Each rat underwent a test of one trial, followed by an interval of 10-minutes, followed by another trial, and so on, for a total of 6 trials in one day. In each trial, each rat went through a sample run in the maze, followed by an interval of 15 seconds, followed by a choice run in the maze. In the sample run, the subject rat was forced to go to the left or to the right by the presence of a block, according to a pseudorandom sequence (with an equal number of left turns and right turns, and no more than two consecutive turns in the same direction). As a reward, Froot Loop cereal was available in the food well at the end of the run, regardless of the direction that was taken by virtue of the block. In the choice run, the block that had been present in the preceding sample run was removed, and the rat was allowed to choose to go to the left or to the right. As a reward, Froot Loop cereal was available in the food well at the end of the run, only when the rat had made a “correct choice” by choosing the direction opposite that taken in the preceding sample run. […]
# On the first day (designated day 0) of the feeding of the two groups, as just described, each rat underwent a preliminary test of one trial, followed by an interval of 10 minutes, followed by another trial, and so on, for a total of 4 trials in one day. […] In this preliminary test, the choice accuracy level, or ratio of correct choices made, co, to the number of number of trials in the test, no, was determined for each rat. […]
# Three groups of animals (young, aging, and magnesium-treated aging rats) were used. […] Spatial working memory was assessed using a T-maze non-matching-to-place task. […] Spatial working memory was first assessed on an elevated T-maze. […]
# [1] = Magnesium absorption rate in rats (metabolic cages, urine and feces magnesium by ICP-AES); conditions: higher dosage compositions; magnesium chloride in water, magnesium gluconate in skim milk or water comprising 5 weight percent lactose
# Procedure: Fifty 3-month old, male Sprague Dawley (SD) rats were divided into five groups of ten rats. Rats of this age and older are considered adult. Each of the rats was placed in a separate metabolic cage equipped with urine- and feces-collecting wells. All of the rats were maintained in a temperature-controlled room (22° C. to 25° C.) with a dark period from 08:00 pm to 08:00 am daily. From day 1 through day 3, each rat was fed daily 15 g of magnesium-free food and de-ionized water. […] The medium was skim milk for Composition 1 and Group 1, milk prepared from powdered milk, by diluting the powdered milk with water to obtain a composition like that of skim milk, for Composition 2 and Group 2, 1% milk cream in water for Composition 3 and Group 3, water comprising 5 weight percent lactose for Composition 4 and Group 4, and water for the Control Composition and Control Group. […]
# From day 4 through day 10, urine from each rat was collected daily. The collected urine from each rat was then pooled together and the total volume of the pooled urine from each rat was recorded. The pooled urine from each rat, in an amount of […], was analyzed for magnesium content using an inductively coupled plasma-atomic emission spectrometer (ICP-AES). […] The pooled feces from each rat, in an amount of 0.5 g, were analyzed for magnesium content using an ICP-AES. […]
# Sprague-Dawley rats = assay: Novel object recognition test in rats; type: in vivo
# Procedure: In this example, the effect of magnesium supplementation on recognition memory was tested. Three groups of rats were used in these experiments: 1) young rats (three months old); aging rats (12-14 months old), and; 3) magnesium-treated aging rats (12-14 months old, diet supplemented with 6 mg/kg MgCl2 from 8 months of age). We used experimentally naive, female, Sprague-Dawley young […], aging (12-14 month old) and […] rats (Charles River) at the beginning of the behavior experiments. They were housed two per cage with continuous access to food and water under a 12:12 light-dark cycle, with light onset at 8:00 a.m. […] All experiments involving animals were approved by the Massachusetts Institute of Technology's and Tsinghua University Committees on Animal Care.
# The three groups of rats were tested for recognition memory using an object recognition test with a single exposure to the object during training. The task is based on the natural tendency of rodents to explore new objects and tests the animals' memory capacity for distinguishing novel versus familiar objects.
# Briefly, the rats were first individually habituated to the personnel and then to open-field arena during 2 weeks. […] The retention intervals were 10 min and 24 hours. Objects were cleaned thoroughly between trials with 20% ethanol solution to ensure the absence of olfactory cues. The particular objects for a given trial were randomly determined, but each object was used for only one trial per rat. Memory of the familiar object is associated with increased exploration of the new object and an exploration index (% correct) is calculated as new object inspection time/30.
# In this example, the effect of magnesium supplementation on memory consolidation was studied. […]
# Briefly, the rats were first individually habituated to the personnel and then to open-field arena during 2 weeks. […] The particular objects for a given trial were randomly determined, but each object was used for only one trial per rat. […]
# [2] = diabetic patients, nearly 1 g of magnesium daily for 1 month; cited from earlier work
# [3] = system: young (9-month old) and aged (25-month old) rats; conditions: food containing 2% magnesium oxide for 8 days, cited from earlier work
# [4] = system: mice that were genetically altered to present symptoms of Alzheimer's disease (AD); assay: Modified Morris water maze in AD mice; type: in vivo; conditions: AD mice aged 13 months
# Procedure: Another group, the control group, of 10 mice that were genetically altered to present symptoms of AD were fed a Control Diet, a diet of normal solid food and water, for 30 days.
# The pool used was a pool of water in a circular metal tank (150 cm in diameter and 50 cm in depth) having a water height of 30 cm and a water temperature that was maintained at ˜22° C. The pool was placed in a moderately lit area and surrounded by a black curtain. An acrylic platform (15 cm in diameter) was placed 2 cm below the surface of the water in the middle of one quadrant of the pool, equidistant from the center and the edge of the pool. Outside the pool, a cue was placed so as to be visible to a mouse in the maze, allowing a mouse to use it as a landmark for spatial orientation. The cue remained unchanged throughout the test period.
# On the first day of the training and testing period, the water in the pool was transparent, such that the platform was visible. Each mouse was trained to swim towards the platform and to stand on the platform so as not to be submerged in the pool. […] The amount of time the mouse took to find the platform, referred to as “escape latency,” was recorded for each trial.
# On the second day of the training and testing period, a small quantity of milk was added to the water in the pool, such that the pool was opaque and the platform was no longer visible. […]
compound,measurement,setting,value
"[Cl-].[Cl-].[Mg+2] [MgCl2, magnesium chloride]",spatial working memory performance with increased delay,Sprague Dawley (SD) rats; 2 and 5 min delays (p<0.05),significantly enhanced the performance of the aging rats
same,percentage of correct choices during training,Sprague Dawley (SD) rats; 15 sec delay (p<0.05),performed significantly better from their first trials
same,asymptotic choice accuracy level,Sprague Dawley (SD) rats; after 8 days of training,94%
same,magnesium absorption rate at relatively high magnesium dosage,[1],less desirable
same,novel object exploration preference,"Sprague-Dawley rats; aging rats (12-14 months old), 6 mg/kg MgCl2 from 8 months of age, single exposure, 10 minute retention interval (P<0.0001)",preferentially explored the novel object to the same extent as young rats
same,ability to distinguish novel versus familiar objects,"Sprague-Dawley rats; aging rats, 6 mg/kg MgCl2, single exposure, after 24 hours",lose there ability to distinguish novel versus familiar objects
same,preference for the novel object,"Sprague-Dawley rats; aging rats, 6 mg/kg MgCl2, two training sessions, 24-hour retention interval",retained a high level of preference
[O]=[Mg] [magnesium oxide],increase of serum magnesium level,[2],about 10%
same,metabolic control,[2],only minor improvement in metabolic control
same,side-effect,[3],diarrhea and weight loss
same,cognitive function,[3]; gain transient,some sign of improvement of cognitive function
CC12CC3CC(C)(C1)CC(N)(C3)C2 [memantine],"reduction of the effects of AD on learning capacity, compared with aricept",[4],better at reducing the effects of AD on learning capacity than aricept
